Test: xn = mol fraction of the nth substance listed, in the solute-free solvent

CC(N)C(=O)O (stereo unspecified) + O + CCCO
solubility (g/100 g solution)
Settings	x2 = 0.1	x2 = 0.2	x2 = 0.3	x2 = 0.4	x2 = 0.5	x2 = 0.6	x2 = 0.7	x2 = 0.8	x2 = 0.9
283.15 K	0.0276	0.0472	0.0784	0.143	0.358	0.635	1.29	2.39	4.58
293.15 K	0.0384	0.0536	0.0822	0.164	0.384	0.742	1.56	3.01	5.63
303.15 K	0.0461	0.0689	0.0947	0.202	0.439	0.892	1.89	3.69	6.82
313.15 K	0.0649	0.0791	0.109	0.224	0.504	1.12	2.27	4.41	8.24
323.15 K	0.0824	0.114	0.147	0.268	0.594	1.29	2.65	5.2	9.44

Cl.N=C(N)N + CN1CCCC1=O + CCCO
solubility (g/100 g solution)
Settings	278.15 K	283.15 K	288.15 K	293.15 K	298.15 K	303.15 K	308.15 K	313.15 K	318.15 K	323.15 K
x2 = 0.06317	8.4	9.4	10.7	11.5	12.7	13.3	15.1	16.1	17.7	18.6
x2 = 0.2064	15.9	17	17.8	19.2	20.1	21.4	22.1	23.2	24.7	25.3
x2 = 0.3774	28.5	29.2	30.4	31	32.1	32.6	33.7	34.4	35.4	35.9
x2 = 0.5858	37.2	37.8	39.1	40.2	41.4	42.1	43.4	44.3	46	47.3
x2 = 0.845	41.9	43.3	44.2	45.5	46.7	47.9	49.3	50.4	52.6	53.1

CC(C)OC(=O)C(C)NP(=O)(OCC1OC(n2ccc(=O)[nH]c2=O)C(C)(F)C1O)Oc1ccccc1 (stereo unspecified) + CCO + O
solubility (g/100 g solution)
Settings	278.15 K	283.15 K	288.15 K	293.15 K	298.15 K	303.15 K	308.15 K	313.15 K	318.15 K
x2 = 0.04165	0.327	0.484	0.653	0.882	1.17	1.57	2.08	2.71	3.42
x2 = 0.08908	1.42	2.02	2.65	3.46	4.44	5.7	7.2	9.04	10.9
x2 = 0.1436	3.58	4.78	6.12	7.78	9.72	12.1	14.7	17.7	21
x2 = 0.2068	5.74	7.67	9.66	12	14.8	17.8	21.3	25.1	29
x2 = 0.2812	7.44	9.76	12.2	14.9	18.1	21.6	25.5	29.7	33.9
x2 = 0.3698	9.07	11.6	14.4	17.3	20.7	24.9	29	33.2	37.7
x2 = 0.4772	11	13.7	16.6	20.2	24.2	28.3	32.5	36.8	41.3
x2 = 0.6101	13.9	17	20.8	24.3	28.5	32.3	37.2	41.6	46.3
x2 = 0.7788	17.6	20.9	24.6	28.8	33.3	37.8	42.4	47	51.6

S=c1[nH]ncs1 + CCCO + O
solubility (g/100 g solution)
Settings	278.15 K	283.15 K	288.15 K	293.15 K	298.15 K	303.15 K	308.15 K	313.15 K	318.15 K	323.15 K
x2 = 0.1	1.64	2.13	2.71	3.49	4.42	5.59	6.98	8.6	10.7	13.4
x2 = 0.2	3.48	4.3	5.41	6.75	8.22	10	12.1	14.6	17.5	20.8
x2 = 0.3	5.01	6.25	7.53	9.11	10.8	12.9	15.4	18.1	21.5	25.1
x2 = 0.4	6.2	7.46	8.98	10.7	12.7	14.7	17.2	20.1	23.3	26.9
x2 = 0.5	7.02	8.48	9.9	11.7	13.5	15.7	18.1	20.8	23.9	27.3
x2 = 0.6	7.59	8.9	10.3	11.9	13.8	15.9	18.2	20.4	23.3	26.4
x2 = 0.7	7.61	8.94	10.3	11.8	13.6	15.4	17.3	19.7	22.2	25.2
x2 = 0.8	7.47	8.6	9.84	11.4	13.1	14.6	16.8	18.9	21.2	24.1
x2 = 0.9	6.73	8.12	8.99	10.4	11.8	13.5	15.3	17.3	19.6	22.2
